Test results from patent publication US20240287138A1, “CYCLIC PEPTIDES FOR INHIBITING TNF RECEPTOR 1 ACTIVITY” (Merck Sharp & Dohme LLC, priority 2023, published 2024).
Numbered stars: 1 amine (or outer) side, 2 acyl side, 3 side chain; on linkers, the order of the positions; unused ones are H or OH. Bridge positions count the residues as written; N and C are the ends. Square brackets hold non-standard residues; d marks the D form. Peptide text beside a SMILES is read from it. * marks the point of attachment. Trp(7-aza,1-CH2COOH) = N[C@@H](Cc1cn(CC(=O)O)c2ncccc12)C(=O)O; Trp(βS-Me,7-OMe) = COc1cccc2c([C@H](C)[C@H](N)C(=O)O)c[nH]c12; Phe(4-CH2SO3H) = N[C@@H](Cc1ccc(CS(=O)(=O)O)cc1)C(=O)O; Ala(indazol-1-yl) = N[C@@H](Cn1ncc2ccccc21)C(=O)O; Trp(7-CN) = N#Cc1cccc2c(C[C@H](N)C(=O)O)c[nH]c12; Trp(7-Cl) = N[C@@H](Cc1c[nH]c2c(Cl)cccc12)C(=O)O; X20 = O=C1NCc2ccc(C[C@H](N[*:1])C(=O)[*:2])cc21; Phe(4-CONH2) = NC(=O)c1ccc(C[C@H](N)C(=O)O)cc1; Phe(4-COOH) = N[C@@H](Cc1ccc(C(=O)O)cc1)C(=O)O; 4Pal(3S-Me) = C[C@@H](c1ccncc1)[C@H](N)C(=O)O; Trp(7-aza) = N[C@@H](Cc1c[nH]c2ncccc12)C(=O)O; X48 = O=C([C@H](CC12CC(O)(C1)C2)N[*:1])[*:2]; Pip(5R-OH) = O=C(O)[C@@H]1CC[C@@H](O)CN1; Tyr(2-F) = N[C@@H](Cc1ccc(O)cc1F)C(=O)O; X1 = O=C([C@@H]1CC[C@H](N[*:1])C1)[*:2]; X45 = O=C([C@H]1CC2(CC2)CN1[*:1])[*:2]; Val(3-OH) = CC(C)(O)[C@H](N)C(=O)O; Pip(4-aza) = O=C(O)[C@@H]1CNCCN1; 4Pal = N[C@@H](Cc1ccncc1)C(=O)O; NMeE = CN[C@@H](CCC(=O)O)C(=O)O; dHyp = O=C(O)[C@H]1C[C@H](O)CN1; Ahp(2) = CCCCC[C@H](N)C(=O)O; NMeS = CN[C@@H](CO)C(=O)O; hSer = N[C@@H](CCO)C(=O)O; αMeS = C[C@](N)(CO)C(=O)O; Carboxymethyl = O=C(O)C*; Nle = CCCC[C@H](N)C(=O)O; X37 = c1cncc(N*)c1; CF3 = FC(F)(F)*; Sar = CNCC(=O)O

What was measured:
[1] = target: T1, TNFα-induced NF-κB signal transduction pathway (TNFR1 signaling) in THP-1 cells (Homo sapiens, UniProt P19438); assay: THP-1 Lucia NF-κB reporter cell assay, inhibition of TNFα-induced NF-κB signaling; type: cell-based; settings: THP-1 NF-κB Lucia reporter cells, 10 ng/mL TNFα, 16-18 h, secreted luciferase; read-out: THP-1 IC50
T1 sequence (P19438 30-455): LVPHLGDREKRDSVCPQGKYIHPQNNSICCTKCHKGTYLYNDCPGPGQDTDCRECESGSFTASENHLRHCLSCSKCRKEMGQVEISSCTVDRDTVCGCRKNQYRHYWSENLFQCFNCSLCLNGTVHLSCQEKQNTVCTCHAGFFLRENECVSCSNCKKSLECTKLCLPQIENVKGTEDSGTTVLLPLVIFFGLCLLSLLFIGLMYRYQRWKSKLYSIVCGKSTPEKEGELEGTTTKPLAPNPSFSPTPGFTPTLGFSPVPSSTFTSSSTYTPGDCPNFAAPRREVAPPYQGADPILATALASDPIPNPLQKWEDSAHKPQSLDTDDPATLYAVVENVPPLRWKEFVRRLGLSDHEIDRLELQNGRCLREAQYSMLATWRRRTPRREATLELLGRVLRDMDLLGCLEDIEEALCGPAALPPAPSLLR
Outline: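 Macrocyclic peptides were preincubated 1 h at 37 °C with THP-1 NF-κB-Lucia reporter cells (20,000 cells/well) in antibiotic-free RPMI 1640/10% FBS, then stimulated with 10 ng/mL human TNFα overnight (16-18 h). Secreted luciferase in supernatant was read by luminescence; IC50 from 4-parameter logistic fits.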

[2] = target: T2, human soluble TNFR1 (sTNFR1) (Homo sapiens, UniProt P19438); assay: Human sTNFR1-peptide displacement assay (LanthaScreen Eu TR-FRET binding assay)
T2 construct: made in house; host or cells: Sf21 (baculovirus)
T2 sequence (P19438 with tags, fused parts or gaps): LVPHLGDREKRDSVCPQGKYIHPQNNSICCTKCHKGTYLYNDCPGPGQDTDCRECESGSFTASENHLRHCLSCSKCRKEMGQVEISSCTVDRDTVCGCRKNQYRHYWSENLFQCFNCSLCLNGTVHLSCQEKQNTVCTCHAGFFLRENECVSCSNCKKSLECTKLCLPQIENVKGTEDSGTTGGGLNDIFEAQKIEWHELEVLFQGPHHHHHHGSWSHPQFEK
Outline: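 Readout is the 665/615 nm TR-FRET ratio (Eu anti-His donor, streptavidin-Alexa647 acceptor), normalized to DMSO and saturating displacer, fit by Morrison-based five-parameter logistic for Kd^app. His-tagged sTNFR1 (1-211) prebound to 100 nM biotinylated peptide SEQ ID NO.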

Row | SMILES | IC50 [1] [nM] | Kd [2] [nM] | IC50 [2] [nM]
1 | CCCC[C@@H]1NC(=O)CSC[C@@H](C(N)=O)NC(=O)[C@H]([C@@H](C)c2c[nH]c3c(OC)cccc23)NC(=O)CN(C)C(=O)[C@H](Cc2ccc(O)cc2)NC(=O)[C@H](Cc2ccc(C(=O)O)cc2)NC(=O)[C@](C)(CO)NC(=O)[C@H](Cc2c[nH]c3c(Cl)cccc23)NC(=O)[C@H](Cc2ccncc2)NC(=O)[C@H](CC(N)=O)NC(=O)[C@H](CCC(=O)O)N(C)C(=O)[C@H](Cn2ncc3ccccc32)NC(=O)[C@H]([C@@H](C)O)NC(=O)[C@H](CC23CC(O)(C2)C3)NC1=O [SEQ ID NO. 152] ({CH2CO}-[Nle][X48]T[Ala(indazol-1-yl)][NMeE]N[4Pal][Trp(7-Cl)][αMeS][Phe(4-COOH)]Y[Sar][Trp(βS-Me,7-OMe)]C-NH2; thioether N-14) | 5.3 | 1.19 | –
2 | CCCCC[C@@H]1NC(=O)[C@@H]2CC[C@@H](C2)NC(=O)[C@H]([C@@H](C)c2c[nH]c3c(OC)cccc23)NC(=O)CN(C)C(=O)[C@H](Cc2ccc(C(N)=O)cc2)NC(=O)[C@H](Cc2ccc(C(N)=O)cc2)NC(=O)[C@](C)(CO)NC(=O)[C@H](Cc2c[nH]c3c(C#N)cccc23)NC(=O)[C@H](Cc2ccc(C(=O)O)cc2)NC(=O)[C@H](CC(N)=O)NC(=O)[C@H]2C[C@H](O)CN2C(=O)[C@H](Cc2c[nH]c3ccccc23)NC(=O)[C@H](CCOC)NC(=O)[C@H]([C@@H](C)c2ccncc2)NC1=O [SEQ ID NO. 154] (cyclo([Ahp(2)][4Pal(3S-Me)][hSer](Me)W[dHyp]N[Phe(4-COOH)][Trp(7-CN)][αMeS][Phe(4-CONH2)][Phe(4-CONH2)][Sar][Trp(βS-Me,7-OMe)][X1])) | 1.2 | 0.17 | –
3 | CCCC[C@@H]1NC(=O)[C@@H]2CC[C@@H](C2)NC(=O)[C@H]([C@@H](C)c2c[nH]c3c(OC)cccc23)NC(=O)CN(C)C(=O)[C@H](Cc2ccc(C(N)=O)cc2)NC(=O)[C@H](Cc2ccc(C(N)=O)cc2)NC(=O)[C@](C)(CO)NC(=O)[C@H](Cc2c[nH]c3c(C#N)cccc23)NC(=O)[C@H](Cc2ccc3c(c2)C(=O)NC3)NC(=O)[C@H](CC(N)=O)NC(=O)[C@H]2C[C@H](OCC(=O)O)CN2C(=O)[C@H](Cc2cn(CC(=O)O)c3ncccc23)NC(=O)[C@@H]2CC[C@@H](O)CN2C(=O)[C@H](Cc2ccncc2)NC1=O [SEQ ID NO. 156] (cyclo([4Pal][Pip(5R-OH)][Trp(7-aza,1-CH2COOH)][dHyp](Carboxymethyl)N[X20][Trp(7-CN)][αMeS][Phe(4-CONH2)][Phe(4-CONH2)][Sar][Trp(βS-Me,7-OMe)][X1][Nle])) | 0.8 | 0.12 | –
4 | CCCC[C@@H]1NC(=O)CSC[C@@H](C(N)=O)NC(=O)[C@H]([C@@H](C)c2c[nH]c3c(OC)cccc23)NC(=O)CN(C)C(=O)[C@H](Cc2ccc(OC(F)(F)F)cc2)NC(=O)[C@H](Cc2ccc(C(=O)O)cc2)NC(=O)[C@](C)(CO)NC(=O)[C@H](Cc2c[nH]c3c(Cl)cccc23)NC(=O)[C@H](Cc2ccncc2)NC(=O)[C@H](CC(N)=O)NC(=O)[C@H](CCC(=O)O)N(C)C(=O)[C@H](Cc2c[nH]c3ncccc23)NC(=O)[C@@H]2CNCCN2C(=O)[C@H](Cc2ccncc2)NC1=O [SEQ ID NO. 158] ({CH2CO}-[Nle][4Pal][Pip(4-aza)][Trp(7-aza)][NMeE]N[4Pal][Trp(7-Cl)][αMeS][Phe(4-COOH)]Y(CF3)[Sar][Trp(βS-Me,7-OMe)]C-NH2; thioether N-14) | 5.3 | – | 1.79
5 | CCCC[C@@H]1NC(=O)CSC[C@@H](C(N)=O)NC(=O)[C@H]([C@@H](C)c2c[nH]c3c(OC)cccc23)NC(=O)CN(C)C(=O)[C@H](Cc2ccc(OC)cc2)NC(=O)[C@H](Cc2ccc(C(=O)O)cc2)NC(=O)[C@](C)(CO)NC(=O)[C@H](Cc2c[nH]c3c(Cl)cccc23)NC(=O)[C@H](Cc2ccc(C(N)=O)cc2)NC(=O)[C@H](CC(N)=O)NC(=O)[C@H](CCC(=O)O)N(C)C(=O)[C@H](Cc2c[nH]c3ccccc23)NC(=O)[C@@H]2CNCCN2C(=O)[C@H](Cc2ccncc2)NC1=O [SEQ ID NO. 162] ({CH2CO}-[Nle][4Pal][Pip(4-aza)]W[NMeE]N[Phe(4-CONH2)][Trp(7-Cl)][αMeS][Phe(4-COOH)]Y(Me)[Sar][Trp(βS-Me,7-OMe)]C-NH2; thioether N-14) | 0.1 | 0.56 | 0.69
6 | CCCC[C@@H]1NC(=O)CSC[C@@H](C(N)=O)NC(=O)[C@H]([C@@H](C)c2c[nH]c3c(OC)cccc23)NC(=O)CN(C)C(=O)[C@H](Cc2ccc(O)cc2)NC(=O)[C@H](Cc2ccc(C(=O)O)cc2)NC(=O)[C@](C)(CO)NC(=O)[C@H](Cc2c[nH]c3c(Cl)cccc23)NC(=O)[C@H](Cc2ccncc2)NC(=O)[C@H](CC(N)=O)NC(=O)[C@H](CCC(=O)O)N(C)C(=O)[C@H](Cc2c[nH]c3ncccc23)NC(=O)[C@H](C(C)(C)O)NC(=O)[C@H](Cc2ccc(C(N)=O)cc2)NC1=O [SEQ ID NO. 164] ({CH2CO}-[Nle][Phe(4-CONH2)][Val(3-OH)][Trp(7-aza)][NMeE]N[4Pal][Trp(7-Cl)][αMeS][Phe(4-COOH)]Y[Sar][Trp(βS-Me,7-OMe)]C-NH2; thioether N-14) | 3.6 | 0.5 | 0.6
7 | COc1cccc2c([C@H](C)[C@@H]3NC(=O)CN(C)C(=O)[C@H](Cc4ccc(O)cc4)NC(=O)[C@H](Cc4ccc(C(=O)O)cc4)NC(=O)[C@](C)(CO)NC(=O)[C@H](Cc4c[nH]c5c(Cl)cccc45)NC(=O)[C@H](Cc4ccncc4)NC(=O)[C@H](CC(N)=O)NC(=O)[C@H](CCC(=O)O)N(C)C(=O)[C@H](Cc4c[nH]c5ccccc45)NC(=O)[C@H](CO)N(C)C(=O)[C@H](Cc4ccncc4)NC(=O)[C@H](CCC(=O)Nc4cccnc4)NC(=O)[C@@H]4CC[C@@H](C4)NC3=O)c[nH]c12 [SEQ ID NO. 166] (cyclo([4Pal][NMeS]W[NMeE]N[4Pal][Trp(7-Cl)][αMeS][Phe(4-COOH)]Y[Sar][Trp(βS-Me,7-OMe)][X1]E(X37))) | 2.7 | 0.44 | 0.5
8 | CCCC[C@@H]1NC(=O)CSC[C@@H](C(N)=O)NC(=O)[C@H]([C@@H](C)c2c[nH]c3c(OC)cccc23)NC(=O)CN(C)C(=O)[C@H](Cc2ccc(O)cc2)NC(=O)[C@H](Cc2ccc(C(=O)O)cc2)NC(=O)[C@](C)(CO)NC(=O)[C@H](Cc2c[nH]c3c(Cl)cccc23)NC(=O)[C@H](Cc2ccncc2)NC(=O)[C@H](CC(N)=O)NC(=O)[C@H]2CC3(CC3)CN2C(=O)[C@H](Cc2c[nH]c3ccccc23)NC(=O)[C@@H]2CNCCN2C(=O)[C@H](Cc2ccncc2)NC1=O [SEQ ID NO. 167] ({CH2CO}-[Nle][4Pal][Pip(4-aza)]W[X45]N[4Pal][Trp(7-Cl)][αMeS][Phe(4-COOH)]Y[Sar][Trp(βS-Me,7-OMe)]C-NH2; thioether N-14) | 2.6 | 0.48 | –
9 | CCCC[C@@H]1NC(=O)[C@@H]2CC[C@@H](C2)NC(=O)[C@H]([C@@H](C)c2c[nH]c3c(OC)cccc23)NC(=O)CN(C)C(=O)[C@H](Cc2ccc(O)cc2)NC(=O)[C@H](Cc2ccc(C(=O)O)cc2)NC(=O)[C@](C)(CO)NC(=O)[C@H](Cc2c[nH]c3c(Cl)cccc23)NC(=O)[C@H](Cc2ccc(CS(=O)(=O)O)cc2)NC(=O)[C@H](CC(N)=O)NC(=O)[C@H](CCC(=O)O)N(C)C(=O)[C@H](Cc2c[nH]c3ccccc23)NC(=O)[C@@H]2CNCCN2C(=O)[C@H](Cc2ccncc2)NC1=O [SEQ ID NO. 171] (cyclo([4Pal][Pip(4-aza)]W[NMeE]N[Phe(4-CH2SO3H)][Trp(7-Cl)][αMeS][Phe(4-COOH)]Y[Sar][Trp(βS-Me,7-OMe)][X1][Nle])) | 0.9 | 0.19 | –
10 | CCCC[C@@H]1NC(=O)[C@@H]2CC[C@@H](C2)NC(=O)[C@H]([C@@H](C)c2c[nH]c3c(OC)cccc23)NC(=O)CN(C)C(=O)[C@H](Cc2ccc(O)cc2F)NC(=O)[C@H](Cc2ccc(C(=O)O)cc2)NC(=O)[C@](C)(CO)NC(=O)[C@H](Cc2c[nH]c3c(Cl)cccc23)NC(=O)[C@H](Cc2ccncc2)NC(=O)[C@H](CC(N)=O)NC(=O)[C@H](CCC(=O)O)N(C)C(=O)[C@H](Cc2c[nH]c3ccccc23)NC(=O)[C@@H]2CNCCN2C(=O)[C@H](Cc2ccncc2)NC1=O [SEQ ID NO. 175] (cyclo([4Pal][Trp(7-Cl)][αMeS][Phe(4-COOH)][Tyr(2-F)][Sar][Trp(βS-Me,7-OMe)][X1][Nle][4Pal][Pip(4-aza)]W[NMeE]N)) | 0.9 | 0.22 | –
